{
  "source": "paper PMC8786932",
  "about": "“Bicyclic azetidines target acute and chronic stages of Toxoplasma gondii by inhibiting parasite phenylalanyl t-RNA synthetase” (Nature Communications, 2022)",
  "key": {"[1]": {"biological_target": "T1, recombinant wild-type TgPheRS (Toxoplasma gondii, UniProt A0A125YPN6)", "T1 sequence (A0A125YPN6 1-525)": "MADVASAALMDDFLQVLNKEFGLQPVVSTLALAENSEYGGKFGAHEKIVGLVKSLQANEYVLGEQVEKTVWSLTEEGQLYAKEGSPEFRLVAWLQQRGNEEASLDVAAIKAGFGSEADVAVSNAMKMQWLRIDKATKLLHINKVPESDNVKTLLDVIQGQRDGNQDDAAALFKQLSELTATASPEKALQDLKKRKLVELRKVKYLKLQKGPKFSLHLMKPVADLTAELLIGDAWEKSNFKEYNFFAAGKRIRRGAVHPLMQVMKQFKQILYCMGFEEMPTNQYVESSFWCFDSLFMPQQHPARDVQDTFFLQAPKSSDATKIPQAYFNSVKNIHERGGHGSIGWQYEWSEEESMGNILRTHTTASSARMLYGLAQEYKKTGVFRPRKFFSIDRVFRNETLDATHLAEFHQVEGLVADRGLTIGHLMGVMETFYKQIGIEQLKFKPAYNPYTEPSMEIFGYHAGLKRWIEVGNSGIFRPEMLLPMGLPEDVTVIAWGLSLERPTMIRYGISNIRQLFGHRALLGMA", "T1 sequence (S8EZ50 1-675 partner)": "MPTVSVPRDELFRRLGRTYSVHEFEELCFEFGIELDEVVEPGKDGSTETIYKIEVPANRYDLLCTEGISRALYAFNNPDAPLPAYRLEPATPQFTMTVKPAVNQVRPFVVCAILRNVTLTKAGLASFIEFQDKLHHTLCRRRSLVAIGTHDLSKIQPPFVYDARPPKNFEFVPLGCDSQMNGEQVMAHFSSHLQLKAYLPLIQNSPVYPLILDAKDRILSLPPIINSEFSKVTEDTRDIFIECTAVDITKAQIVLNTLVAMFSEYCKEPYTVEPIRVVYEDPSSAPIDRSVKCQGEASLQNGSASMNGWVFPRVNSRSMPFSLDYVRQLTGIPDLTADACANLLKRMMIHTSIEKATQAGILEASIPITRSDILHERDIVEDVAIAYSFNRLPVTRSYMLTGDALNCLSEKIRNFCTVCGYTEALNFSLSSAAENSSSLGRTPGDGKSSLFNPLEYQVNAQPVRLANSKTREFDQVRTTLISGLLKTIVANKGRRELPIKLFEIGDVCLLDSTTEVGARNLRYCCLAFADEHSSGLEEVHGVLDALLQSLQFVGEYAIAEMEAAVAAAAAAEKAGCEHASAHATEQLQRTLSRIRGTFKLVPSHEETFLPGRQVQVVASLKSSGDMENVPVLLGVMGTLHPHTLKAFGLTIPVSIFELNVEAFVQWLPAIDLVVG", "assay": "Malachite green aminoacylation enzyme assay, wild-type TgPheRS", "type": "biochemical", "details": "for Tg PheRS enzyme assay raw signal: replicates"}, "TgPheRS[L497I]": {"biological_target": "T2, TgPheRS[L497I] (Toxoplasma gondii, UniProt A0A125YPN6, L497I)", "T2 sequence (A0A125YPN6 1-525 L497I)": "T1 sequence (A0A125YPN6 1-525)", "T2 sequence (S8EZ50 1-675 partner)": "T1 sequence (S8EZ50 1-675 partner)", "assay": "Enzyme assay, TgPheRS L497I", "type": "biochemical", "details": "for enzyme assay readout (raw): L497I"}, "TgPheRS[M484I]": {"biological_target": "T3, TgPheRS[M484I] (Toxoplasma gondii, UniProt A0A125YPN6, M484I)", "T3 sequence (A0A125YPN6 1-525 M484I)": "T1 sequence (A0A125YPN6 1-525)", "T3 sequence (S8EZ50 1-675 partner)": "T1 sequence (S8EZ50 1-675 partner)", "assay": "Enzyme assay, TgPheRS M484I", "type": "biochemical", "details": "for enzyme assay readout (raw): M484I"}, "[2]": {"details": "mouse; cited from earlier work"}},
  "note": "pIC50: −log10 of the molar value. Several values for one entry are separate records, joined by “and”; a condition that tells them apart may be missing. Equal values may be shown once.",
  "data": [
    {"smiles": "COc1ccc(NC(=O)N2CCCCN3[C@H](CN(C)C)[C@H](c4ccc(C#Cc5ccccc5)cc4)[C@@H]3C2)cc1", "note": "[BRD7929]", "values": [
      {"measurement": "pIC50", "setting": "[1]", "value": 7.51},
      {"measurement": "Tg PheRS enzyme assay raw signal", "setting": "[1]; BRD7929 0.000001 μM", "value": "0.2010 (2×) and 0.1986"},
      {"measurement": "Tg PheRS enzyme assay raw signal", "setting": "[1]; BRD7929 0.000010 μM", "value": "0.1950 and 0.1940 and 0.1990"},
      {"measurement": "Tg PheRS enzyme assay raw signal", "setting": "[1]; BRD7929 0.000100 μM", "value": "0.1980 and 0.1900 and 0.1990"},
      {"measurement": "Tg PheRS enzyme assay raw signal", "setting": "[1]; BRD7929 0.001000 μM", "value": "0.1940 and 0.1790 and 0.1870"},
      {"measurement": "Tg PheRS enzyme assay raw signal", "setting": "[1]; BRD7929 0.010000 μM", "value": "0.1697 and 0.1750 and 0.1724"},
      {"measurement": "Tg PheRS enzyme assay raw signal", "setting": "[1]; BRD7929 0.100000 μM", "value": "0.1290 and 0.1332 and 0.1400"},
      {"measurement": "Tg PheRS enzyme assay raw signal", "setting": "[1]; BRD7929 1.000000 μM", "value": "0.1100 and 0.1180 and 0.1090"},
      {"measurement": "Tg PheRS enzyme assay raw signal", "setting": "[1]; BRD7929 10.000000 μM", "value": "0.0928 and 0.1144 and 0.1108"},
      {"measurement": "Tg PheRS enzyme assay raw signal", "setting": "[1]; BRD7929 100.000000 μM", "value": "0.1051 and 0.0940 and 0.1066"},
      {"measurement": "enzyme assay readout (raw, malachite green, 620 nm)", "setting": "[1]; WT, BRD7929 100.000000 μM", "value": "0.1051 and 0.0940 and 0.1066"},
      {"measurement": "enzyme assay readout (raw)", "setting": "TgPheRS[L497I]; 0.000005 μM", "value": "0.3299 and 0.3217 and 0.3007"},
      {"measurement": "enzyme assay readout (raw)", "setting": "TgPheRS[L497I]; 0.000050 μM", "value": "0.3157 and 0.3171 and 0.3115"},
      {"measurement": "enzyme assay readout (raw)", "setting": "TgPheRS[L497I]; 0.000500 μM", "value": "0.3154 and 0.3074 and 0.3183"},
      {"measurement": "enzyme assay readout (raw)", "setting": "TgPheRS[L497I]; 0.005000 μM", "value": "0.2831 and 0.3060 and 0.3128"},
      {"measurement": "enzyme assay readout (raw)", "setting": "TgPheRS[L497I]; 0.050000 μM", "value": "0.3012 and 0.2839 and 0.2985"},
      {"measurement": "enzyme assay readout (raw)", "setting": "TgPheRS[L497I]; 0.500000 μM", "value": "0.2641 and 0.2615 and 0.2741"},
      {"measurement": "enzyme assay readout (raw)", "setting": "TgPheRS[L497I]; 5.000000 μM", "value": "0.2401 and 0.2141 and 0.2271"},
      {"measurement": "enzyme assay readout (raw)", "setting": "TgPheRS[L497I]; 50.000000 μM", "value": "0.1719 and 0.1728 and 0.1711"},
      {"measurement": "pIC50", "setting": "TgPheRS[L497I]; Table S4, L497I, read-out: IC50 (enzyme inhibition)", "value": 5.88},
      {"measurement": "enzyme assay readout (raw)", "setting": "TgPheRS[M484I]; 0.000050 μM", "value": "0.2597 and 0.2568 and 0.2561"},
      {"measurement": "enzyme assay readout (raw)", "setting": "TgPheRS[M484I]; 0.000500 μM", "value": "0.2555 and 0.2526 and 0.2544"},
      {"measurement": "enzyme assay readout (raw)", "setting": "TgPheRS[M484I]; 0.005000 μM", "value": "0.2503 and 0.2478 and 0.2487"},
      {"measurement": "enzyme assay readout (raw)", "setting": "TgPheRS[M484I]; 0.050000 μM", "value": "0.2472 and 0.2441 and 0.2410"},
      {"measurement": "enzyme assay readout (raw)", "setting": "TgPheRS[M484I]; 0.500000 μM", "value": "0.2388 and 0.2402 and 0.2378"},
      {"measurement": "enzyme assay readout (raw)", "setting": "TgPheRS[M484I]; 5.000000 μM", "value": "0.2341 and 0.2345 and 0.2337"},
      {"measurement": "enzyme assay readout (raw)", "setting": "TgPheRS[M484I]; 50.000000 μM", "value": "0.2266 and 0.2241"},
      {"measurement": "pIC50", "setting": "TgPheRS[M484I]; Table S4, M484I, read-out: IC50 (enzyme inhibition)", "value": 6.87},
      {"measurement": "oral bioavailability", "setting": "[2]", "value": 80, "unit": "%"}
    ]}
  ]
}
